Assay results from patent US9314508B2, “Use of somatostatin analogs in control of hypoglycemia” (priority 2008, dated 2016).

Legend:
[1] = system: adult male Lewis rats fasted for 24 h; test: glyburide induced hypoglycemia in fasted rats, plasma glucose; format: in vivo, rat; conditions: for glucose −30 min / glucose 1 h / glucose 3 h / glucose 6 h / glucose −24 h: fasted animals; for glucose −30 min: 30 min before application (baseline); for glucose 1 h: 1 h after application; for glucose 3 h: 3 h after application; for glucose 6 h: 6 h after application; for glucose −24 h: 24 h before application (baseline)
Experimental: Food restriction for 24 h reduced plasma glucose concentration in all treatment groups from about 8 mmol/l to approximately 6 mmol/l. 30 min before the application of the compound (FIG. 1, Table 1).

fed rats = test: glyburide effect on plasma glucose in fed rats; format: in vivo, rat; conditions: for glucose −30 min / glucose 1 h / glucose 3 h / glucose 6 h / glucose −24 h: fed animals; for glucose −30 min: 30 min before application (baseline); for glucose 1 h: 1 h after application; for glucose 3 h: 3 h after application; for glucose 6 h: 6 h after application; for glucose −24 h: 24 h before application (baseline)
Experimental: 30 min before the application of the compound (FIG. 1, Table 1).

patients = patients with hypoglycemia receiving octreotide; cited from earlier work
[2] = Glyburide 30 mg/kg p.o. + 10 μg/kg s.c.
[3] = Glyburide 30 mg/kg p.o. + 30 μg/kg s.c.

| Compound | glucose −30 min [1, 2] [mmol/L] | glucose 1 h [1, 2] [mmol/L] | glucose 3 h [1, 2] [mmol/L] | glucose 6 h [1, 2] [mmol/L] | glucose −24 h [1, 2] [mmol/L] | glucose −30 min [1, 3] [mmol/L] | glucose 1 h [1, 3] [mmol/L] | glucose 3 h [1, 3] [mmol/L] | glucose 6 h [1, 3] [mmol/L] | glucose −24 h [1, 3] [mmol/L] | glucose 1 h (fed rats; [2]) [mmol/L] | glucose 3 h (fed rats; [2]) [mmol/L] | glucose 6 h (fed rats; [2]) [mmol/L] | glucose −24 h (fed rats; [2]) [mmol/L] | glucose 1 h (fed rats; [3]) [mmol/L] | glucose 3 h (fed rats; [3]) [mmol/L] | glucose 6 h (fed rats; [3]) [mmol/L] | glucose −24 h (fed rats; [3]) | also measured |
| --- | --- | --- | --- | --- | --- | --- | --- | --- | --- | --- | --- | --- | --- | --- | --- | --- | --- | --- | --- |
| cyclo[{(4-(NH2—C2H4—NH—CO—O—)Pro}-Phg-DTrp-Lys-Tyr(4-Bzl)-Phe] [pasireotide] | 5.88 ± 0.16 | 7.00 ± 0.42 | 6.22 ± 0.42 | 6.48 ± 0.52 | 8.07 ± 0.45 | 6.10 ± 0.23 | 6.98 ± 0.59 | 7.55 ± 0.47 | 7.58 ± 0.47 | 7.93 ± 0.52 | 13.48 ± 0.65 | 12.42 ± 0.39 | 6.85 ± 0.23 | 8.65 ± 0.18 | 13.47 ± 0.91 | 13.13 ± 0.69 | 9.12 ± 0.47 | 8.85 ± 0.25 mmol/L | effect on plasma glucose in glyburide treated rats ([1]; fasted rats, Glyburide 30 mg/kg p.o. + 10 or 30 μg/kg s.c., 1, 3 and 6 h after the application): plasma glucose increased to levels of untreated fasted rats or above; glucose −30 min (fed rats; [2]): 8.53 ± 0.34 mmol/L; glucose −30 min (fed rats; [3]): 8.10 ± 0.29 mmol/L; effect on plasma glucose (fed rats; fed rats pretreated with glyburide): significant but transit effect |
| COc1ccc(Cl)cc1C(=O)NCCc1ccc(S(=O)(=O)NC(=O)NC2CCCCC2)cc1 [Glyburide] |  |  |  |  |  |  |  |  |  |  |  |  |  |  |  |  |  |  | glucose −30 min ([1]; Glyburide 30 mg/kg p.o. alone): 6.07 ± 0.39 mmol/L; glucose 1 h ([1]; Glyburide 30 mg/kg p.o. alone): 5.48 ± 0.15 mmol/L; glucose 3 h ([1]; Glyburide 30 mg/kg p.o. alone): 4.17 ± 0.16 mmol/L; glucose 6 h ([1]; Glyburide 30 mg/kg p.o. alone): 3.53 ± 0.13 mmol/L; glucose −24 h ([1]; Glyburide 30 mg/kg p.o. alone): 7.87 ± 0.34 mmol/L; minimum plasma glucose level ([1]; fasted rats, Glyburide 30 mg/kg p.o. alone, 6 h after the application): 3.5 mmol/L; glucose −30 min (fed rats; Glyburide 30 mg/kg p.o. alone): 8.72 ± 0.14 mmol/L; glucose 1 h (fed rats; Glyburide 30 mg/kg p.o. alone): 7.42 ± 0.18 mmol/L; glucose 3 h (fed rats; Glyburide 30 mg/kg p.o. alone): 5.33 ± 0.16 mmol/L; glucose 6 h (fed rats; Glyburide 30 mg/kg p.o. alone): 6.27 ± 0.16 mmol/L; glucose −24 h (fed rats; Glyburide 30 mg/kg p.o. alone): 8.65 ± 0.11 mmol/L; hypoglycemic effect (fed rats; fed rats, glyburide alone): not very pronounced |
| C[C@@H](O)[C@@H]1NC(=O)[C@H](CCCCN)NC(=O)[C@@H](Cc2c[nH]c3ccccc23)NC(=O)[C@H](Cc2ccccc2)NC(=O)[C@@H](NC(=O)[C@H](N)Cc2ccccc2)CSSC[C@@H](C(=O)N[C@H](CO)[C@@H](C)O)NC1=O [octreotide] | 5.75 ± 0.21 | 4.27 ± 0.07 | 4.28 ± 0.14 | 4.28 ± 0.23 | 8.53 ± 0.27 | 6.43 ± 0.49 | 4.22 ± 0.14 | 5.83 ± 0.28 | 4.83 ± 0.24 | 8.63 ± 0.19 | 7.27 ± 0.15 | 5.80 ± 0.24 | 6.00 ± 0.44 | 8.17 ± 0.38 | 7.48 ± 0.25 | 5.63 ± 0.24 | 6.10 ± 0.43 | 8.07 + 0.43 mmol/L | serum glucose level versus controls (patients): higher than that in controls; time within which the effect on serum glucose waned (patients): ≤ 8 h; prevention of the glyburide induced hypoglycemia ([1]; fasted rats, Glyburide 30 mg/kg p.o. + 10 or 30 μg/kg s.c., after 1 h): not effective; effect on glucose levels in glyburide treated rats ([1]; fasted rats, highest dose (30 μg/kg s.c.), after 3 and 6 h): only a small tendency to increase glucose levels |
